Tests used:
Type in all cases: functional
[1] = biological target: T1, Mitogen-activated protein kinase (Plasmodium falciparum, UniProt Q25917); experiment: Final concentrations were 1 uM ATP, 0.5 mM DTT, 1 mM MgCl2, 0.5 mg/mL BSA, and 10 ug/ml MAP2 in a buffer of 50 mM HEPES (pH 7.0). 0.5 mg/mL histone III-S served as the substrate (13); 100 uM AMP-PNP, an ATP analog, was used as a control inhibitor. Incubation time was 4 hours.
T1 sequence (Q25917 whole entry): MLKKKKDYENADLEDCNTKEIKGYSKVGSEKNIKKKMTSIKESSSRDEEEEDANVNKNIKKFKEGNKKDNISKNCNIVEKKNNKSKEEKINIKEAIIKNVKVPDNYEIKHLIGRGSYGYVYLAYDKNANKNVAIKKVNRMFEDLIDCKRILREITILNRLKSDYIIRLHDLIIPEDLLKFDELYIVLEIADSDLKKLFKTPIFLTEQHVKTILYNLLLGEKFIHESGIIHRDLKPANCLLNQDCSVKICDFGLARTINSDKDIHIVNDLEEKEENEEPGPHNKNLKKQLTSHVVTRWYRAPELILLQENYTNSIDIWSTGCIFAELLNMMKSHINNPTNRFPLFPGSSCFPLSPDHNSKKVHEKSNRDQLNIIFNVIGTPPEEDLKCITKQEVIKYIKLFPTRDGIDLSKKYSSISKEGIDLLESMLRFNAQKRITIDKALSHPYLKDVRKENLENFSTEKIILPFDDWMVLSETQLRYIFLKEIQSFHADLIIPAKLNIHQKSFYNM

[2] = biological target: T2, Cdk-related protein kinase 6 (Plasmodium falciparum, UniProt O77239); experiment: Final concentrations were 1.5 uM ATP, 5 mM MnCl2, and 15 ug/ml PK6 in a buffer of 100 mM Tris-HCl (pH 7.5). 50 ug/mL MBP was provided as the substrate; 10 uM staurosporine was used as a control inhibitor. Incubation time was 3 hours and 40 minutes.The catalytic activity of each kinase was considered proportional to ATP consumed, as determined from measurements of residual [ATP] with the luciferase-based reagent Kinase-Glo (Promega) following incubation. Luminescence (proportional to residual [ATP]) was measured on the plate readers FLx800 (BioTek Instruments, Winooski, VT, USA) and MicroBeta2.
T2 sequence (O77239 whole entry): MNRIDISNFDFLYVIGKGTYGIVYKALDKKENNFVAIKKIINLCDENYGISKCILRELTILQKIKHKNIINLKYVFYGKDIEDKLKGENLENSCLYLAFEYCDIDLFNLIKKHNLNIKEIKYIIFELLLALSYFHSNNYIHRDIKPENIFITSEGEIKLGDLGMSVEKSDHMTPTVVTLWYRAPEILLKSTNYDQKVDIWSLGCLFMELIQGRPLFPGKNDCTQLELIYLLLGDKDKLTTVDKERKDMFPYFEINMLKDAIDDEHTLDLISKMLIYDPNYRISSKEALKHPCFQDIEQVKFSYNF

[3] = biological target: T3, Proline--tRNA ligase (Plasmodium falciparum (isolate 3D7), UniProt Q8I5R7); experiment: MMV: ProRS recombinant Plasmodium falciparum Prolyl-tRNA-synthetase, assay with yeast tRNA, ATP, and proline and 3 uM MMV malaria box compound, assay read out with kinase glo as % inhibition.
T3 sequence (Q8I5R7 whole entry): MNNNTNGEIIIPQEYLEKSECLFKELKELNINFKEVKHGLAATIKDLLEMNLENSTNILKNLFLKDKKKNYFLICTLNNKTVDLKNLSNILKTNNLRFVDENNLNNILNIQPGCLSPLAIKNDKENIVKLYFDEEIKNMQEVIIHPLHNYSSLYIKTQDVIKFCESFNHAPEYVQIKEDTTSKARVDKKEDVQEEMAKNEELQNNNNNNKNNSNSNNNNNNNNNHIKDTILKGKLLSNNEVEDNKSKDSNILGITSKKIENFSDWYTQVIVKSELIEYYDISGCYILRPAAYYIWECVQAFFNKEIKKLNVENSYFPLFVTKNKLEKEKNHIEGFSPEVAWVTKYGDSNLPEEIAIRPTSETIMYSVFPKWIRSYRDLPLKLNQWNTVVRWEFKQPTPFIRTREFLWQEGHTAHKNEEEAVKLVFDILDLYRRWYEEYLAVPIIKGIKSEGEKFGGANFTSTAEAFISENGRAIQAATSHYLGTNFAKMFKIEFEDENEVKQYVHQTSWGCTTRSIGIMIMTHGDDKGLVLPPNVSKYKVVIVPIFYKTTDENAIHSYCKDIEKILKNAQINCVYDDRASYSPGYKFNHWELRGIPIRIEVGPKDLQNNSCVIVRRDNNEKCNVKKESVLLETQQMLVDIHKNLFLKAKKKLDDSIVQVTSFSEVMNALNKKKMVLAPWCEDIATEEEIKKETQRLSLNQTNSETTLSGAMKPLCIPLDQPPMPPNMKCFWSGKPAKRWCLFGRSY

[4] = biological target: Lysine--tRNA ligase (Plasmodium falciparum (isolate 3D7), UniProt Q8IDJ8); experiment: MMV: KRS recombinant Plasmodium falciparum Lysyl-tRNA-synthetase, assay with yeast tRNA, ATP, and lysine and 3 uM MMV malaria box compound, assay read out with kinase glo as % inhibition.
[5] = biological target: T4, Putative uncharacterized protein pk7 (Plasmodium falciparum, UniProt O96214); experiment: Final concentrations were 1 uM ATP, 2 mM DTT, 20 mM MgCl2, 2 mM MnCl2, 0.01% BSA, and 6 ug/ml PK7, in a buffer of 20 mM Tris-HCl (pH 7.5). The enzyme itself was the only substrate present (since autophosphorylation occurs); 100 uM 1NA-PP1 was used as a control inhibitor. Incubation time was 3 hours.
T4 sequence (O96214 whole entry): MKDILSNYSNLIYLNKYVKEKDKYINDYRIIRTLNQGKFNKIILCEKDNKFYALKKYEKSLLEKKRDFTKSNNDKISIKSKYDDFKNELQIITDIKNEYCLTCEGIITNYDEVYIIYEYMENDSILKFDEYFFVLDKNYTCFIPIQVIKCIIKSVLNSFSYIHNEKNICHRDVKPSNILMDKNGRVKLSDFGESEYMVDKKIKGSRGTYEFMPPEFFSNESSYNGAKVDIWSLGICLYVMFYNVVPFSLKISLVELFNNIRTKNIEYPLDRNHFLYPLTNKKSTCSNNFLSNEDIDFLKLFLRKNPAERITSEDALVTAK

[6] = biological target: Calcium-dependent protein kinase 1 (Plasmodium falciparum, UniProt P62344); experiment: MMV: CDPK1 Protein kinase inhibition assay using recombinant PfCDPK1, syntide 2 peptide substrate, ATP and KinaseGlo to measure % inhibition at 1 uM MMV box compound.
[7] = biological target: T5, Calcium-dependent protein kinase 4 (Plasmodium falciparum (isolate 3D7), UniProt Q8IBS5); experiment: MMV: CDPK4 Protein kinase inhibition assay using recombinant PfCDPK4, syntide2 peptide substrate, ATP and KinaseGlo to measure % inhibition at 1 uM MMV box compound.
T5 sequence (Q8IBS5 whole entry): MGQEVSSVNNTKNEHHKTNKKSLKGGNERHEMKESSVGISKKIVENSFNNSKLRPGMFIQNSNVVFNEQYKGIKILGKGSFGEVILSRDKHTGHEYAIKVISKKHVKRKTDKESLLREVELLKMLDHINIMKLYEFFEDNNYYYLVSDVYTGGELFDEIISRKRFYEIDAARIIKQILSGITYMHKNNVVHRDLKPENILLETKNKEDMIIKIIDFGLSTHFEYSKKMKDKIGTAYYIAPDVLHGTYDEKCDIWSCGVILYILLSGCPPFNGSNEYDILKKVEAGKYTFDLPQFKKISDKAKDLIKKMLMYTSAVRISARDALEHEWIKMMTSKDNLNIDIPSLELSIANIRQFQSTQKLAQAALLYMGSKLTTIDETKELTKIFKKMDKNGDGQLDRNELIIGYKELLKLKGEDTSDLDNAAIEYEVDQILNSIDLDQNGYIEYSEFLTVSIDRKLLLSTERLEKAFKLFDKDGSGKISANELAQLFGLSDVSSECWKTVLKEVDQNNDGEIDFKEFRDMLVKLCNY

Sequence of Lysine--tRNA ligase (Q8IDJ8 whole entry): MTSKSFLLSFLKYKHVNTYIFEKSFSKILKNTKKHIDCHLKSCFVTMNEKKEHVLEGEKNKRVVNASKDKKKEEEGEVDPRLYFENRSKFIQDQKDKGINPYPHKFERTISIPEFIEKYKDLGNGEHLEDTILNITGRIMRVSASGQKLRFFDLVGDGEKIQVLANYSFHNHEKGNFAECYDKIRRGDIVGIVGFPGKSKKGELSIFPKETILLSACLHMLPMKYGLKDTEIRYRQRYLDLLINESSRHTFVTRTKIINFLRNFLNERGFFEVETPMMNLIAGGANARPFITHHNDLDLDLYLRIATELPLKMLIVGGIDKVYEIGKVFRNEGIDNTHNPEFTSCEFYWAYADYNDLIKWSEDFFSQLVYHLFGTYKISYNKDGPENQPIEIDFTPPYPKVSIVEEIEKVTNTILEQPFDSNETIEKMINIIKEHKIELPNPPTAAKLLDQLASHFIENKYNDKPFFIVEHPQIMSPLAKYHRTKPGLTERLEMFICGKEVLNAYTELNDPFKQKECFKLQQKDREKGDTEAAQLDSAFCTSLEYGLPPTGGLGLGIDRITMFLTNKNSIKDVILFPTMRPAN
Sequence of Calcium-dependent protein kinase 1 (P62344 whole entry): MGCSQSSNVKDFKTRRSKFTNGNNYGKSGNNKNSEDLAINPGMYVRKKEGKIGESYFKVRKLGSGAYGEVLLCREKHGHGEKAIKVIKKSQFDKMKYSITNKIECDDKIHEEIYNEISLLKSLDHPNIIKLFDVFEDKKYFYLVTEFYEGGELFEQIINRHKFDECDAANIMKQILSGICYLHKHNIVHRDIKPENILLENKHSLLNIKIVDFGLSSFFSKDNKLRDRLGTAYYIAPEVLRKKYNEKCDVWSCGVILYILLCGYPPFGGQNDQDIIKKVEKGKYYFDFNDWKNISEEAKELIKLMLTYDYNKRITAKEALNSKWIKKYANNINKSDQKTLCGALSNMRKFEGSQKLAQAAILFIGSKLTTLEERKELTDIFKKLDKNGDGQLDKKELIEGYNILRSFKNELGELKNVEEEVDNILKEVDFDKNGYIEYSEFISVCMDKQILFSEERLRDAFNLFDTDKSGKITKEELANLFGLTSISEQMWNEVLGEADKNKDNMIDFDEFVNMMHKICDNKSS

Structure (SMILES)	IC50 [1] [nM]	IC50 [2] [nM]	IC50 [3] [nM]	IC50 [4] [nM]	IC50 [5] [nM]	IC50 [6] [nM]	IC50 [7] [nM]
COc1ccc(C(=O)Nc2ccc(Cl)cc2C(=O)Nc2ccncc2)cc1	> 1000	> 1000	> 2500	> 2500	> 1000	> 1000	> 1000
CN(C)c1ccc(-c2nc3cc(N)ccc3[nH]2)cc1	> 1000	> 1000	> 2500	> 2500	> 1000	> 1000	> 1000
O=C(CSc1ccc2nnc(-c3cccc(F)c3)n2n1)Nc1ccc2c(c1)OCO2	> 1000	> 1000	> 2500	> 2500	> 1000	> 1000	> 1000
Cc1c(C)n(Cc2ccc(F)cc2)c2ccc(C(=O)NCc3ccco3)cc12	> 1000	> 1000	> 2500	> 2500	> 1000	> 1000	> 1000
CCN(CC)c1ccc(NC(=O)c2cccs2)cc1	> 1000	> 1000	> 2500	> 2500	> 1000	> 1000	> 1000
O=C(Nc1ccsc1C(=O)NC1CCCCC1)c1ccc(F)cc1	> 1000	> 1000	> 2500	> 2500	> 1000	> 1000	> 1000
O=C(Nc1cccc(C(F)(F)F)c1)c1cc(Cl)ccc1O	> 1000	> 1000	> 2500	> 2500	> 1000	> 1000	> 1000
CCOc1cccc2sc(N(Cc3cccnc3)C(=O)C3CCCCC3)nc12	> 1000	> 1000	> 2500	> 2500	> 1000	> 1000	> 1000
O=C(Nc1ccccc1O)c1ccc(-c2ccc(Cl)cc2Cl)o1	> 1000	> 1000	> 2500	> 2500	> 1000	> 1000	> 1000
COc1ccccc1N1CCN(C(CNS(=O)(=O)c2ccc(Cl)cc2)c2cccnc2)CC1 (configuration not stated)	> 1000	> 1000	> 2500	> 2500	> 1000	> 1000	> 1000
C=C(C)CCC(C)N1CCC(N2CCC(C(=O)NCCc3ccccc3)CC2)CC1 (configuration not stated)	> 1000	> 1000	> 2500	> 2500	> 1000	> 1000	> 1000
